Data as given in patent US20120065365A1, “Stable Radiopharmaceutical Compositions and Methods for Their Preparation” (BRACCO IMAGING S.P.A., priority 2003, published 2012).
Like-named read-outs stand apart in the source and are kept apart here.

Key:
[1] = Radiostability (RCP, Met═O by HPLC) of preformed ^177Lu-A with individual amino acids added (Example 1); format: physicochemical; details: amino acid 6.6 mg/mL, room temperature
Protocol: (§1) The injection volume was 20 μL.
Solutions of the individual amino acids L-Methionine, L-Selenomethionine, L-cysteine HCl.H2O, L-Tryptophan, L-Histidine, and Glycine were prepared at a concentration of 10 mg/mL in 10 mM Dulbecco's phosphate-buffered saline, pH 7.0 [PBS].
The final radioactive concentration of each sample was ˜20 mCi/mL.

[2] = format: physicochemical; details: ^177Lu-A (2.7-3.7 mCi) prepared in presence of 1 mg/mL stabilizer
Protocol: The injection volume was 10 μL.
Each individual stabilizer was prepared at a concentration of 1 mg/mL in sodium acetate (NaOAc) buffer (0.2 M, pH 4.8). […] The reaction mixture was heated to 100° C. for 5 minutes, and then cooled for 5 minutes in an ambient-temperature water hath. To each sample, 10 μL of 2% Na2EDTA.2H2in water was added, and then each was divided into two 100-μL aliquots. One aliquot was analyzed by HPLC (Method 5) and then stored at room temperature in a sealed lead container for 24 hours. The other aliquot was stored frozen (−10° C.) for 24 hours. Each sample was analyzed at t=24 h.

[3] = format: physicochemical; details: ^177Lu-A (3.6 mCi) prepared in presence of 2.5 mg/mL stabilizer
Protocol: To lead-shielded 4-mL vials was added 200 μL of the individual NaOAc-stabilizer solutions, 3.58 mCi ^177LuCl3 (avg) and 5.08 μg COMPOUND A (dissolved in water). The ratio of COMPOUND A to Lutetium was 3:1 for all samples. The reaction mixtures were heated to 100° C. for 5 minutes, then cooled, treated with Na2EDTA.2H2O, subdivided and stored as described in Example 9. The radiochemical purity (RCP) percentage data obtained are listed Table 12.

[4] = format: physicochemical
Protocol: as §1
Each stabilizer was prepared at a concentration of 5 mg/mL in sodium acetate (NaOAc) buffer (0.2 M, pH 4.8). To lead-shielded 4-mL vials were added 200 μL of the individual stabilizer solutions, 3.55 mCi ^177LuCl3 (avg) and 5.44 μg COMPOUND A (dissolved in water). A second set of replicates of each sample was prepared, using the individual stabilizers. To these was added 4.37 mCi ^177LuCl3 (avg) and 6.7 μg (avg) COMPOUND A (dissolved in water). The ratio of COMPOUND A to lutetium was 3:1 for all samples. The reaction mixture was heated to 100° C. for 5 minutes then cooled for 5 minutes in an ambient-temperature water bath. To each sample, 10 μL of 2% Na2EDTA.2H2O in water was added, then each was analyzed by HPLC (Method 1 for the first set of replicates; Method 2 for the second set of replicates). The second set of replicates were stored and analyzed again at t=24 h.

[5] = format: physicochemical; remark: listed apart in the source
Protocol: The reaction vial was crimp-sealed and heated at 100° C. for 5 min. […] The sample was stored in an autosampler in which the temperature is ˜6° C. […] than room temperature, and analyzed by RP-HPLC for up to 24 hours.
L-Selenomethionine: ^177Lu-B was prepared, diluted and analyzed as described above, but 5 mg of L-Se-Met was used in place of PDTC, the heating time was 10 minutes, and the quantity of radioactivity used was 52 mCi.
L-cysteine ethyl ester, HCl: ^177Lu-B was prepared, diluted and analyzed as described above, but 5 mg of L-CEE, hydrochloride salt was used in place of PDTC, the heating time was 5 minutes and the quantity of radioactivity used was 50 mCi.
L-cysteine HCl.H2O: ^177Lu-B was prepared, diluted and analyzed as described above, but 5 mg of L-Cys HCl.H2O was used in place of PDTC, the heating time was 8 minutes and the quantity of radioactivity used was 53 mCi.

[6] = Labeling efficiency and stability of ^111In-B with selenomethionine 2.5 mg/mL (Example 21); format: physicochemical
Protocol: A solution of L-selenomethionine (20 mg/mL) was prepared by dissolving it in NaOAc buffer (0.2 M, pH 4.0). To a lead-shielded 2-mL vial was added 111 μL of NaOAc buffer (0.2 M, pH 4.0), 25 μL selenomethionine solution (0.5 mg of Se-Met), 4 μL of COMPOUND B (20 μg in 0.01 N HCl) and 1.0 mCi ^111InCl3 in 60 μL of 0.05 N HCl. A control reaction was run containing all reagents above, but substituting NaOAc buffer for the Se-Met solution. The reaction mixtures were heated at 100° C. for 15 minutes, and then cooled for 1 minute in an ambient-temperature water bath. To each sample, 200 μL of stabilizing solution (0.2% HSA, 5% ascorbic acid, 0.9% benzyl alcohol, 20 mM Se-Met in 50 mM citrate buffer, pH 5.3) and 2 μL of 1% Na2EDTA.2H2O in water were added, and then each was analyzed stored at room temperature for up to 6 hours and analyzed by HPLC as described below. HPLC conditions: Vydac C18 column, 4.6×250 mm, 5 μM, 1.5 mL/min flow rate at 30° C. Solvent A: 0.1% TFA in water; Solvent B: 0.085% TFA in acetonitrile. Gradient: 80% A/20% B isocratic for 20 min, ramp up to 40% A/60% B in 5 min, hold for 5 mm, return to 80% A/20% B in 5 min.

Question: Which “0-1 h RCP (%)” value ([1]; ^177Lu-A ~20 mCi/mL (3.5 mCi total), 0-1 h) does the source give for C[Se]CC[C@H](N)C(=O)O [L-Selenomethionine] here?
Answer: Its value is 100%.

Question: And the “24-h RCP (%)” value ([1]; ^177Lu-A ~20 mCi/mL, 24 h)?
Answer: Its value is 99.1%.

Question: What about the “48-h RCP (%)” value ([1]; ^177Lu-A ~20 mCi/mL, 48 h) of the same compound?
Answer: The value was 99.9%.

Question: What about the “RCP % t = 24 h (frozen)” value ([2]; 24 h frozen (−10° C.)) of the same compound?
Answer: The value was 99.2%.

Question: And the “RCP % t = 24 h (room temp)” value ([2]; 24 h room temp)?
Answer: Its value is 100%.

Question: And the “RCP % t = 0 h” value ([2]; t = 0 h)?
Answer: The value was 100%.

Question: What about the “RCP % t = 24 h (frozen)” value ([3]; 24 h frozen) of the same compound?
Answer: Its value is 94.7%.

Question: And the “RCP % t = 24 h (room temp)” value ([3]; 24 h room temp)?
Answer: The value was 95.6%.

Question: What about the “RCP % t = 0 h” value ([3]; t = 0 h) of the same compound?
Answer: Its value is 95.7%.

Question: What about the “Replicate 1 RCP % t = 0 h” value ([4]; ^177Lu-A (3.55 mCi avg) prepared in presence of 5 mg/mL stabilizer, HPLC Method 1, t = 0 h) of the same compound?
Answer: The value was 57.5%.

Question: And the “Replicate 2 RCP % t = 0 h” value ([4]; ^177Lu-A (4.37 mCi avg) prepared in presence of 5 mg/mL stabilizer, HPLC Method 2, t = 0 h)?
Answer: The value was 60.6%.

Question: And the “Replicate 2 RCP % t = 24 h” value ([4]; ^177Lu-A (4.37 mCi avg) prepared in presence of 5 mg/mL stabilizer, HPLC Method 2, t = 24 h)?
Answer: The value was 57.1%.

Question: What about the “(% RCP) 3-h” value ([5]; ^177Lu-B (44-53 mCi) formulated with 5 mg stabilizing compound, 3 h) of the same compound?
Answer: Its value is 94.6%.

Question: And the “(% RCP) 6-h” value ([5]; ^177Lu-B (44-53 mCi) formulated with 5 mg stabilizing compound, 6 h)?
Answer: The value was 94.4%.

Question: And the “(% RCP) 9-h” value ([5]; ^177Lu-B (44-53 mCi) formulated with 5 mg stabilizing compound, 9 h)?
Answer: The value was 93.3%.

Question: And the “(% RCP) 12-h” value ([5]; ^177Lu-B (44-53 mCi) formulated with 5 mg stabilizing compound, 12 h)?
Answer: The value was 92.6%.

Question: And the “(% RCP) 24-h” value ([5]; ^177Lu-B (44-53 mCi) formulated with 5 mg stabilizing compound, 24 h)?
Answer: The value was 90.6%.

Question: What about the “(% RCP) 0-h” value ([5]; ^177Lu-B (44-53 mCi) formulated with 5 mg stabilizing compound, diluted to ~2 mL, ~6° C. above room temperature, 0 h) of the same compound?
Answer: Its value is 95.0%.

Question: What about the “RCP Drop over 24 hr” value ([5]; ^177Lu-B formulated with 5 mg stabilizing compound, 0 to 24 h) of the same compound?
Answer: The value was 4.4%.

Question: And the “RCP, % t = 0” value ([6]; ^111In-B (1.0 mCi) prepared in presence of selenomethionine 2.5 mg/mL, stabilizing solution added after, t = 0)?
Answer: Its value is 98.3%.

Question: And the “RCP, % t = 6 h” value ([6]; ^111In-B prepared in presence of selenomethionine 2.5 mg/mL, room temperature, 6 h)?
Answer: Its value is 96.6%.
